Source: article PMC5624297, “Trichoplax adhaerens reveals a network of nuclear receptors sensitive to 9-cis-retinoic acid at the base of metazoan evolution” (PeerJ, 2017)

Target: T1, TaRXR (T. adhaerens RXR; GST-TaRXR) (Trichoplax adhaerens, UniProt A0A290WNL1)
T1 construct: full-length RXR cDNA in pGEX-2T, E. coli BL21 pLysS; N-terminal GST fusion on glutathione beads or thrombin-cleaved; starts MEDRSFK (from printed primer)
T1 sequence (A0A290WNL1 1-345): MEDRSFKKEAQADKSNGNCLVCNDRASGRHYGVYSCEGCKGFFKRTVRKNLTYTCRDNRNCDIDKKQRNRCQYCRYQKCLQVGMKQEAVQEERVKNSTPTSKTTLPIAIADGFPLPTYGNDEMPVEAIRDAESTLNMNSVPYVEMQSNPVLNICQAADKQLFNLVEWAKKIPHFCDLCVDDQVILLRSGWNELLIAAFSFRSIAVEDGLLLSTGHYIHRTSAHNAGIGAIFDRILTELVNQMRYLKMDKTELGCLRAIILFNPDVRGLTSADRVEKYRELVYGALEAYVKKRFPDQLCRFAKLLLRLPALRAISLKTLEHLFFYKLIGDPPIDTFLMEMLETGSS
Test: radioligand saturation binding (GST-TaRXR on beads) and competition (thrombin-cleaved TaRXR)
Conditions: labelled compound (3H); 50 mM Tris-HCl pH 7.4, 1 mM EDTA, 120 mM KCl, 5 mM DTT, 8% glycerol, 0.3-0.5% CHAPS; 2 h on ice in dark

CC1=C(/C=C/C(C)=C\C=C\C(C)=C\C(=O)O)C(C)(C)CCC1 [9-cis-retinoic acid]
radioligand saturation binding (GST-TaRXR on beads) and competition (thrombin-cl): TaRXR prepared as thrombin cleaved TaRXR or GST-TaRXR binds 9-cis-RA with high affinity and specificity
